Measurements published in patent US20250381274A1 (priority 2022, published 2025).
“Also recorded” adds a separate entry of the source. Read-outs that look alike come from different tables or passages of the source.

Assays:
corneal buttons = system: corneal buttons; set-up: species or system rabbit; conditions: for equilibrium modulus change vs paired control (words): Dresden protocol (riboflavin/R5P + UVA); for viscoelastic ratio change vs paired control (words): Dresden protocol (riboflavin/R5P + UVA) vs R5P-exposed-only control
Protocol: • 3 rabbits, (n=8 pairs of 3 mm biopsy punched corneal buttons) • Laser Treatments: • Fidelity II, 1069 nm, 450 mW • Focusing: Marker/spark around, not touching the tissue • Objective: ZEISS 40X, NA=0.1463 • Z: increments 20 μm, 5 layers (several intervals) • 1stlayer 15 μm below surface of focus sparking • XY: 10 μm zigzag grid, 3 mm radius circle • With ˜12 gram compression • Motor speed 2.6 mm/s, full circle treatments: ˜25*5 mins • Sample Preparation: • −3 mm biopsy punch (1BT) • not connected to IV system • Prior to LT: 30 mins in 20% w/w Dextran 500 in PBS • 30 mins in 20% w/w ribose in DPBS (˜1.7M) • Post LT: Trypan blue is used to mark endothelium side • Imaged on the same day in DPBS • Overnight storage in DPBS in 4C fridge • 3 hrs prior to indentation, in room temp PBS • Piuma nano-indentation: • For each cornea button, the average of up to 16 indentations are acquired as
• 3 rabbits, (n=10 pairs of 3 mm biopsy punched corneal buttons) • 3 mm biopsy punch • not connected to IV system • Treatment Protocol-1 hr submerged in 20% w/v Ribose for all samples • 1 hr of UV-A lamp irradiation (control was not under UV) • Post Treatment Trypan blue is used to mark endothelium side • Imaged on the same day in DPBS • Overnight storage in DPBS in 4C fridge • 3 hrs prior to indentation, in room temp PBS • Piuma nano-indentation: • For each cornea button, the average of up to 16 indentations are acquired as representative modulus • The average of the representative modulus are presented in appended FIGS. 1-25.
Nano-Indentation: The corneal buttons were stored in PBS in a 4C fridge overnight for hydration equilibrium. Indentations of 5 μm depth using 29-35 μm diameter spherical indenters were performed on the anterior surface of the cornea buttons to acquire 25-second load-relaxation curves. For each button, the average of up to 16 indentations was used as the representative result. The equilibrium modulus and the viscoelastic ratio, defined as equilibrium modulus over instantaneous modulus, were calculated and compared.
Nanoindentation: Indentations were performed on the anterior surface of the cornea buttons. The equilibrium modulus E∞, instantaneous modulus Eo, and the viscoelastic ratio E∞/Eo, were calculated and compared.
After overnight incubation in PBS at 4C to reach equilibrium hydration, corneal buttons in Group A were allowed to return to room temperature the next morning after the respective treatment days while glued to the bottom of a petri-dish with the anterior surface of the corneal button facing upward. A displacement-controlled indenter (Piuma, Optics 11, Amsterdam, The Netherlands) was used to perform micro-indentations on top of the sample surface submerged in PBS; for each sample, multiple tests were performed following an array of 16 equally spaced (4×4) contact points with a spacing of 100 μm to 150 μm, covering roughly a 0.4×0.4 mm^2 area at the center of each corneal button. A spherical glass probe with a 34 μm radius and 0.2 N/m stiffness was used for samples in Group 1A; another spherical glass probe with a 25.5 μm radius and 4.09 N/m stiffness was used for Group 1B, 1C, 1D, and 2C. The indentation process at each contact point was comprised of three consecutive steps of loading Piezo movement of 5 μm for 2 seconds, holding time of 5 s, and unloading for 2 seconds. The load-relaxation curves obtained after indenting each point were then processed using a viscoelastic model to obtain equilibrium modulus and viscoelastic ratio following a fitting algorithm developed by Oyen.

corneal tissues = assay: Multiphoton/confocal imaging: autofluorescence and second harmonic generation signal; set-up: species or system rabbit; conditions: anterior 100 μm
Description: • The grey value of the top 100 μm (11 Z-stacks) of the cornea button was summed; • The average of the grey value summations are presented in appended FIGS. 1-25. • […] • The average of the grey value summations and Representative images at ˜600*600*100 μm in x, y, z are presented in appended FIGS. 1-25. The autofluorescence and second harmonic generation (SHG) signals of the corneal tissues in Group A were investigated to reveal the presence of CxLs and structural changes in collagenous ECM after hydration equilibrium in PBS on the same night of individual treatment days. Imaging was performed with a Nikon TI Eclipse inverted microscope using a Ti: Sapphire laser Chameleon Ultra II at 860 nm as the light source and a Nikon Apo LWD 20× objective for focusing. The emission filter was set at the FITC channel (475-650 nm, peak 525 nm) for autofluorescence signal collection and at the DAPI channel (400-600 nm, peak at 457 nm) for SHG signal collection. The XY scanning area for each sample was 635 μm by 635 μm, and Z scanning was 100 μm deep with 10 μm increments (stack of 11 images per sample). The summation of the average grey value processed in Image J at each layer was used as the representative signal strength for each sample.

Substance	equilibrium modulus change (corneal buttons; 20% Dextran + femtosecond laser 755-760 nm ~850 mW, coverslip, without oxygen)	equilibrium modulus change vs paired control (words) (corneal buttons)	viscoelastic ratio change vs paired control (words) (corneal buttons)	viscoelastic ratio change vs paired control (words) (corneal buttons; listed as riboflavin)	equilibrium modulus change vs paired control (words) (corneal buttons; listed as riboflavin)	equilibrium modulus (corneal buttons; Group 1D positive control: Dresden protocol, 0.1% R5P in 20% dextran 500 + UVA)	second harmonic generation signal intensity change vs paired control (words) (corneal tissues; Dresden protocol vs R5P exposed control)	autofluorescence signal intensity change vs paired control (words) (corneal tissues; Dresden protocol vs R5P only control)
Dextran	significantly increased the equilibrium modulus of the cornea, but the magnitudes are small	–	–	–	–	–	–	–
riboflavin-5-phosphate [R5P, reference compound]	–	statistically significant differences	more elastic response; also recorded: significantly different time-dependent elastic response	significant increase; also recorded: significantly increased	significantly increased	100 kPa	increased SHG signal; also recorded: statistically significant increase; also recorded: Statistical significance	increased; also recorded: Statistical significance
